Experimental data reported in ChEMBL document CHEMBL1139393 (Bioorg Med Chem Lett, 2008).

Tests used:
Stromelysin-1 = Stromelysin-1 (Homo sapiens, UniProt P08254)
[1] = biological target: T1, Disintegrin and metalloproteinase domain-containing protein 10 (Homo sapiens, UniProt O14672)
T1 sequence (O14672 whole entry): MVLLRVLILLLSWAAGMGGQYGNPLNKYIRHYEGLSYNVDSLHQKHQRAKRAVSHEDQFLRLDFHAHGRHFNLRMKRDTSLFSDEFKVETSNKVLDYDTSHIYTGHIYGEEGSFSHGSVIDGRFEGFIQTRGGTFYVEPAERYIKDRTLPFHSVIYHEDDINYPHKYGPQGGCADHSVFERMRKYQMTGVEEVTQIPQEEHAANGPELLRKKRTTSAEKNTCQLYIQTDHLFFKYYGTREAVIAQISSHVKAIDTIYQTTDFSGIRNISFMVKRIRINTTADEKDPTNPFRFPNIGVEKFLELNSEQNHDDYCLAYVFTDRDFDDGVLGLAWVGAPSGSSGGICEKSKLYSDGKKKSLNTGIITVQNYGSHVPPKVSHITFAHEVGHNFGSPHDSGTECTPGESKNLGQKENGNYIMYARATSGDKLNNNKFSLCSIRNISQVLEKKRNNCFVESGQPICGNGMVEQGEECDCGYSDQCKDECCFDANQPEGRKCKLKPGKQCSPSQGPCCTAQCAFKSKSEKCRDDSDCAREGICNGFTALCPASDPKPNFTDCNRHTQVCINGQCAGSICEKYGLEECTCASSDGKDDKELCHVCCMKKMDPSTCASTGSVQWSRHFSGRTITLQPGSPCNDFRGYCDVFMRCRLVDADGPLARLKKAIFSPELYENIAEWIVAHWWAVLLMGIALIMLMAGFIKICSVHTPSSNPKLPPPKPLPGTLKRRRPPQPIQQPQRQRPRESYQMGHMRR

[2] = biological target: Matrix metalloproteinase-14 (Homo sapiens, UniProt P50281)
Matrilysin = biological target: T2, Matrilysin (Homo sapiens, UniProt P09237)
T2 sequence (P09237 whole entry): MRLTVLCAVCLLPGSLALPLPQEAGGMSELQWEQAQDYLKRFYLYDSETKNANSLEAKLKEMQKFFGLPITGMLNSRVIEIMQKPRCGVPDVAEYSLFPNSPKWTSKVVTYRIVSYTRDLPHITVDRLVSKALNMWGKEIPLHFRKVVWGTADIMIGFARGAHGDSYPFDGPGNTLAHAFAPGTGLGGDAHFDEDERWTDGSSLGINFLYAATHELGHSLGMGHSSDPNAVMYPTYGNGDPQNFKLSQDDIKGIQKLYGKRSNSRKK

Interstitial collagenase = biological target: T3, Interstitial collagenase (Homo sapiens, UniProt P03956)
T3 sequence (P03956 whole entry): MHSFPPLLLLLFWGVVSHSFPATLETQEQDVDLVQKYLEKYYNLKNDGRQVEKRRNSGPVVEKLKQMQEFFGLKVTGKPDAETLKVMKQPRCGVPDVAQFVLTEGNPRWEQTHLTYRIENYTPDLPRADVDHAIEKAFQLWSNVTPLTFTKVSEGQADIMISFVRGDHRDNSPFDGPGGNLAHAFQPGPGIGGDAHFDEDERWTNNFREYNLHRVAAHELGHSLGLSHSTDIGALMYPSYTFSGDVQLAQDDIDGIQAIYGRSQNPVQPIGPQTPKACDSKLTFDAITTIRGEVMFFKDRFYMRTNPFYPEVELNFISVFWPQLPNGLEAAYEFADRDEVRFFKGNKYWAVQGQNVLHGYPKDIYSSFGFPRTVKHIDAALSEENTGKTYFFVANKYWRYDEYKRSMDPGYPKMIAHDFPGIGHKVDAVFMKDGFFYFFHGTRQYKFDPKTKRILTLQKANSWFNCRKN

[3] = biological target: 72 kDa type IV collagenase (Homo sapiens, UniProt P08253)
Sequence of 72 kDa type IV collagenase (P08253 whole entry): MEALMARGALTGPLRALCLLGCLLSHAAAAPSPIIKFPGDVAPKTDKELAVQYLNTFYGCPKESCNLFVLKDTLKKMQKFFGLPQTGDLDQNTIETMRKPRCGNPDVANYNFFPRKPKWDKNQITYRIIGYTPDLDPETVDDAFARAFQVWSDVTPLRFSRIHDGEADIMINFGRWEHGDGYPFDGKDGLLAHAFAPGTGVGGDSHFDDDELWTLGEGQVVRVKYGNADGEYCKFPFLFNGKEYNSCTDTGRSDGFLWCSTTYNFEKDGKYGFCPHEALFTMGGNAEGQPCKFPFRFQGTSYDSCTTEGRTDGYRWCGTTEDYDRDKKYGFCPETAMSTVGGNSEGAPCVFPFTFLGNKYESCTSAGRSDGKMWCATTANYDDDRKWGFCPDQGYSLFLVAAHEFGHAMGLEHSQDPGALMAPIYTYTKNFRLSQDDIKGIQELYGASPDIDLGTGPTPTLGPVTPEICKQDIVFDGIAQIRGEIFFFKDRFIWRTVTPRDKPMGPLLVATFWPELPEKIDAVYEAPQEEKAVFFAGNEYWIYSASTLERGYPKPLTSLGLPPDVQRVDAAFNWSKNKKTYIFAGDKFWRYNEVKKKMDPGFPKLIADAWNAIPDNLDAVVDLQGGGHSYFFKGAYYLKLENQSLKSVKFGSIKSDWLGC

[4] = AUC in Sprague-Dawley rat at 10 mg/kg, po; type: ADME, organism-based; design: dose 10 mg/kg, route oral; details: plasma
[5] = Permeability from apical to basolateral side of human Caco-2 cells; type: ADME, cell-based; details: read-out: permeability

Sequence of Stromelysin-1 (P08254 whole entry, the tested form may be a part): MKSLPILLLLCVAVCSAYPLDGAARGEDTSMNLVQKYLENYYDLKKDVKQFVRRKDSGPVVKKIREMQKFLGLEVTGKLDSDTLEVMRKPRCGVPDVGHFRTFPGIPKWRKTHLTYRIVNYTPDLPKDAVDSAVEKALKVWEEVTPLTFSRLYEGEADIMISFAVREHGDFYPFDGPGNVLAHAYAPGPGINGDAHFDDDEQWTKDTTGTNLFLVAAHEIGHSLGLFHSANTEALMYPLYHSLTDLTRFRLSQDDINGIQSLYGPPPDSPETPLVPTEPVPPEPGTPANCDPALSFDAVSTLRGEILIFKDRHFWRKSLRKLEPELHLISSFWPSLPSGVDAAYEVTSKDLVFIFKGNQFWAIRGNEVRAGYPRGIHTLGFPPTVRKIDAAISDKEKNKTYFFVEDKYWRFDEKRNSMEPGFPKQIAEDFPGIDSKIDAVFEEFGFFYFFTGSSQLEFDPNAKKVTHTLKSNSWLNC

Ki (Stromelysin-1) [mM]	Ki [1] [mM]	Ki [2] [mM]	Ki (Matrilysin) [mM]	Ki (Interstitial collagenase) [mM]	Ki [3] [mM]	AUC [4] [µM·h]	Papp A→B [5] [×10⁻⁶ cm/s]	Compound
> 10	> 10	> 10	> 10	> 10	> 10	–	–	O=C(NO)[C@H]1C[C@]1(Cc1ccc(OCc2cc(-c3ccccc3)nc3ccccc23)cc1)C(=O)N1CCC[C@H]1CO
0.058	> 10	2.4	0.11	> 10	1	–	–	Cc1cc(COc2ccc(C[C@]3(C(N)=O)C[C@@H]3C(=O)NO)cc2)c2ccccc2n1
–	–	–	–	–	–	> 2.5	–	N#C[C@@]1(Cc2ccc(OCc3cc(-c4ccccc4)nc4ccccc34)cc2)C[C@@H]1C(=O)NO
–	–	–	–	–	–	–	0.3	NC(=O)[C@@]1(Cc2ccc(OCc3cc(-c4ccccc4)nc4ccccc34)c(F)c2)C[C@@H]1C(=O)NO
